Experimental data reported in PubChem BioAssay (NCI).
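All cell lines were grown in 96-well plates and treated with compound for 48 hours. The concentration for 50% growth inhibition is given as GI50. At the TGI there is no net growth.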

Assays:
Experiment in all cases: NCI anticancer screen, dose series, 48 h
[1] = system: HCC-2998 colon
[2] = system: HL-60(TB) leukemia
[3] = system: HOP-62 NSCLC
[4] = system: HS 578T breast
[5] = system: IGROV1 ovarian
[6] = system: MDA-MB-231 breast
[7] = system: MDA-N
[8] = system: NCI-H522 lung
[9] = system: UACC-62 melanoma
[10] = system: ACHN renal
[11] = system: RXF 393 renal
[12] = system: TK-10 renal

Structure (SMILES)	TGI [1] [µM]	TGI [2] [µM]	TGI [3] [µM]	TGI [4] [µM]	TGI [5] [µM]	TGI [6] [µM]	TGI [7] [µM]	TGI [8] [µM]	TGI [9] [µM]	TGI [10] [µM]	TGI [11] [µM]	TGI [12] [µM]	GI50 [10] [µM]	GI50 [3] [µM]	GI50 [4] [µM]	GI50 [6] [µM]	GI50 [8] [µM]	GI50 [11] [µM]	GI50 [12] [µM]	GI50 [9] [µM]
CCCCOc1ccc2c(c1)CC[C@@H]1[C@@H]2CC[C@]2(C)C(=O)N(CCCC)C(=O)C[C@@H]12	> 100	> 100	> 100	> 100	> 100	> 100	> 100	> 100	> 100											
CCOC(=O)C1=C(c2ccccc2)C12N(Cc1ccccc1)C(=O)C2(c1ccccc1)c1ccccc1 (stereo unspecified)	90.3	> 100	> 100	> 100	> 100	> 100	> 100	75.2	> 100	> 100	> 100	> 100								
N#Cc1ccc(C2Oc3ccc(Cl)cc3C=C2[N+](=O)[O-])cc1 (stereo unspecified)	3.21	3.91	3.8	47.6	3.11	3.63	3.19	2.92	3.09	3.06	9.86	3.38								
Cc1ccc(C#CS(=O)(=O)C(F)(F)F)cc1	> 100	> 31.6	> 100		> 100			> 100	> 100		> 100									
COc1cc(-c2nc3cc(Cl)c(Cl)cc3[nH]2)ccc1OCC(=O)N=Nc1c(O)[nH]c2ccc(Cl)cc12			1.98	3.71		1.95		2.08	2.54	> 100	3.4	> 100	1.69	0.455	1.04	0.538	0.386	1	2.53	1.2
